According to PMC3922157 (Journal of Antimicrobial Chemotherapy, 2013):
Where two headings read alike, the source gives them in different places.

Tests used:
[1] = system: bloodstream-form T. b. brucei; test: Alamar blue drug susceptibility assay, bloodstream-form trypanosomes; type: cell-based; settings: for Increase in susceptibility on expression of TbAT1: TbAT1 expressed in B48 (Figure S6); for EC50: Trypanosoma brucei
Description: (§1) Drug susceptibilities of the bloodstream-form trypanosomes[47] and L. mexicana promastigotes[48] were determined using the Alamar blue assay exactly as described previously, measuring fluorescence in 96-well plates with a FLUOstar Optima (BMG Labtech, Durham, NC, USA) at wavelengths of 544 nm for excitation and 620 nm for emission. EC50 values were calculated by non-linear regression using an equation for a sigmoidal dose–response curve with variable slope (GraphPad Prism 5.0; GraphPad Software Inc., San Diego, CA, USA).

[2] = system: procyclic T. b. gambiense 386MR; type: cell-based
[3] = system: procyclic T. b. brucei 247MR; type: cell-based
[4] = system: Leishmania mexicana promastigotes; test: Alamar blue drug susceptibility assay, L. mexicana promastigotes expressing T. brucei aquaporins; type: cell-based; settings: for Sensitization by expression of TbAQP2: L. mexicana promastigotes expressing TbAQP2 vs empty-vector control
Description: as §1
TbAQP2 and TbAQP3 were amplified from genomic DNA by PCR using Phusion polymerase (Thermo Scientific) and subcloned into the pNUS vector for expression in Leishmania.[49] The construct was verified by sequencing before transfection into L. mexicana promastigotes using an Amaxa Nucleofector (program U-33).

TbAQP2 [5] = target: T1, TbAQP2 (Trypanosoma brucei brucei, UniProt Q6ZXT3); test: cell-based
TbAQP3 = target: T2, TbAQP3 (Trypanosoma brucei brucei, UniProt Q6ZXT2); type: cell-based, T. b. brucei; settings: 100 nM [3H]pentamidine over 5 min; TbAQP3-transfected promastigotes
T2 construct: expressed in transfected cells; host or cells: Leishmania mexicana promastigotes, pNUS vector

LAPT1 [6] = settings: cited from earlier work
HAPT1 [7] = target: T3, HAPT1 (Trypanosoma brucei brucei, UniProt Q6ZXT3); test: cell-based; type: cell-based, T. b. gambiense
T. b. rhodesiense = settings: cited from earlier work; further: key: highly sensitive (+++); ++: indicated on a relative scale; +: indicated on a relative scale; +/−: indicated on a relative scale; −: indicated on a relative scale; highly resistant to pentamidine or melaminophenyl arsenicals (−−−)
HAPT1 [8] = target: T3, HAPT1; test: [3H]pentamidine high-affinity transport, bloodstream forms
T. b. brucei = settings: cited from earlier work
[9] = system: bloodstream-form T. b. brucei; settings: cited from earlier work
HAPT1 [10] = target: T3, HAPT1; test: cell-based; type: cell-based, T. b. brucei
LAPT1 [11] = settings: 1 μM [3H]pentamidine; for Km: read-out: LAPT1 Km
TbAQP2 [12] = target: T1, TbAQP2
LAPT1 [13] = settings: 1 μM [3H]pentamidine; for Km: read-out: LAPT1 Km; remark: listed apart in the source
T. b. gambiense = settings: cited from earlier work
LAPT1 [14] = test: [3H]pentamidine low-affinity transport, bloodstream forms; type: cell-based, T. b. brucei; settings: for Km: read-out: LAPT1 pentamidine Km
T. b. brucei 247MR = system: T. b. brucei 247MR; set-up: method as in PMID 9225768; settings: cited from earlier work
HAPT1 [15] = target: T3, HAPT1; set-up: endogenous in cells; host or cells: bloodstream-form T. b. brucei Lister 427 derivatives (s427 WT, TbAT1-KO, 2T1: endogenous AQP2; B48/AQP2: wild-type TbAQP2 from vector pHDK21, derived from pHD1336); settings: cited from earlier work
[16] = system: N=C(N)c1ccc(OCCCCCOc2ccc(C(=N)N)cc2)cc1; test: cells, lysate or membranes; settings: pH 7.3
[17] = B48 + TbAQP2 vs B48 empty vector (Figure 1)
[18] = P1000 + TbAQP2 vs P1000 empty vector (Figure 1)
Wherever susceptibility is given: key: highly sensitive (+++); ++: indicated on a relative scale; +: indicated on a relative scale; +/−: indicated on a relative scale; −: indicated on a relative scale; highly resistant to pentamidine or melaminophenyl arsenicals (−−−).

T3 sequence (Q6ZXT3 whole entry): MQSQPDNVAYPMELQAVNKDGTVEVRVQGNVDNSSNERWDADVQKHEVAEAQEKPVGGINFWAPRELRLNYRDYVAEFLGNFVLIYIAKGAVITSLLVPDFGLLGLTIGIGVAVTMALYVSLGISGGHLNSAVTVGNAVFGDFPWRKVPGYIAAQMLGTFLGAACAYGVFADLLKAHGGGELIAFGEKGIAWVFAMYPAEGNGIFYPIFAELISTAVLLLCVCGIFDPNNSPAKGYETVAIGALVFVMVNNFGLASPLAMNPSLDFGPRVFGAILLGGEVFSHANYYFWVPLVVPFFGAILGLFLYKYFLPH
T1 sequence (Q6ZXT3 whole entry): as above
T2 sequence (Q6ZXT2 whole entry): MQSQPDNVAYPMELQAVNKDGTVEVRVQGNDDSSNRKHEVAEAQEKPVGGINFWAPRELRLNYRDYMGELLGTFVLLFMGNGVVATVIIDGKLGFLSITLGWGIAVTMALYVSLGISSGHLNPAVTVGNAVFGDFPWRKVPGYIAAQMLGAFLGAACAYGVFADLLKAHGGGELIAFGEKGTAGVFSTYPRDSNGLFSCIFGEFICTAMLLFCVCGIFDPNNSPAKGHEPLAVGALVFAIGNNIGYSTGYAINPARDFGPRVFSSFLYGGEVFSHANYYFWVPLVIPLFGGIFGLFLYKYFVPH

C[C@H]1O[C@@H](n2cnc3c(N)ncnc32)[C@H](O)[C@@H]1O [5′-deoxyadenosine]
Increase in susceptibility on expression of TbAT1 ([1]; P < 0.001): > 20 fold

Cl.Cl.NCCS[As](SCCN)c1ccc(Nc2nc(N)nc(N)n2)cc1 [Cymelarsan]
Resistance relative to parental line [2]: 83 fold
Resistance relative to parental line [3]: 755 fold
Reversal of resistance on expression of TbAQP2 [1, 17]: 16.7 fold
Reversal of resistance on expression of TbAQP2 [1, 18]: 15.0 fold
Difference in susceptibility ([1]; aqp2 null vs aqp2 null expressing WT AQP2, P < 0.001): 4.1 fold
Difference in susceptibility ([1]; aqp2 null vs aqp2 null expressing chAQP2/3, P < 0.05): 1.4 fold

C[C@@H]1[C@H](O)[C@@H](C)/C=C/C=C/C=C/C=C/C=C/C=C/C=C/[C@H](O[C@@H]2O[C@H](C)[C@@H](O)[C@H](N)[C@@H]2O)C[C@@H]2O[C@](O)(C[C@@H](O)C[C@@H](O)[C@H](O)CC[C@@H](O)C[C@@H](O)CC(=O)O[C@H]1C)C[C@H](O)[C@H]2C(=O)O [amphotericin B]
Sensitization by expression of TbAQP2 [4]: no statistically significant effect

Nc1ncnc2c1ncn2[C@@H]1O[C@H](CO)C[C@H]1O [cordycepin, 3′-deoxyadenosine]
Increase in susceptibility on expression of TbAT1 ([1]; P < 0.001): > 20 fold

N=C(N)c1ccc(/N=N/Nc2ccc(C(=N)N)cc2)cc1 [diminazene]
Ki (TbAQP2 [5]): 100 ± 21 µM
Reversal of resistance on expression of TbAQP2 [1, 17]: not affected
Reversal of resistance on expression of TbAQP2 [1, 18]: not affected
Sensitization by expression of TbAQP2 [4]: no statistically significant effect

N=C(N)c1ccc(OCCCCCOc2ccc(C(=N)N)cc2)cc1 [pentamidine]
Uptake of [3H]pentamidine compared with control (TbAQP3): not significantly different
Km (LAPT1 [6]; read-out: LAPT1 pentamidine Km, B48 bloodstream forms, ref Bridges et al. 16): 56 ± 7 µM
Km (LAPT1 [6]; read-out: LAPT1 pentamidine Km, TbAT1-KO bloodstream forms, ref Matovu et al. 14): 50 ± 17 µM
Km (LAPT1 [6]; read-out: LAPT1 pentamidine Km, WT s427 bloodstream forms, ref De Koning 17): 56 ± 8 µM
Km (LAPT1 [6]; read-out: published pentamidine Km for LAPT1): 56.2 ± 8.3 µM
HAPT1 Vmax (HAPT1 [7]; STIB 386WT procyclics, 25 nM [3H]pentamidine): 0.007 ± 0.002 pmol/10^7 cells/s
Resistance relative to parental line [2]: 90 fold
Susceptibility (T. b. rhodesiense): +++ and −
IC50 (HAPT1 [8]): 60 ± 17 nM
Reduction of [3H]pentamidine uptake (HAPT1 [8]; 50 nM [3H]pentamidine, B48 compared with TbAT1-KO control): 15.5 fold
Increase of [3H]pentamidine uptake on expression of TbAQP2 (HAPT1 [8]; 50 nM pentamidine, B48 + TbAQP2 vs B48): 27.7 fold
Susceptibility (T. b. brucei): +++ and +/− and ++ and −
Loss of sensitivity on homozygous deletion of TbAT1 [9]: 2.5–3 fold
HAPT1 Vmax (HAPT1 [10]; STIB 247WT procyclics, 25 nM [3H]pentamidine): 0.008 ± 0.002 pmol/10^7 cells/s
Resistance relative to parental line [3]: 74 fold
Reversal of resistance on expression of TbAQP2 [1, 17]: 50 fold
Reversal of resistance on expression of TbAQP2 [1, 18]: 240 fold
EC50 [1]: 158 ± 2 nM
EC50 ([1]; aqp2/aqp3 null expressing AQP3^sf2, P < 0.02): 131 ± 3 nM
Sensitization by expression of TbAQP2 [4]: 40 fold
Sensitization by expression of TbAQP3 ([4]; L. mexicana promastigotes expressing TbAQP3, two independent clones): 1.5–2.5 fold
LAPT1 Vmax (LAPT1 [11]; STIB 386MR procyclics): 1.2 ± 0.4 pmol/10^7 cells/s
LAPT1 Vmax (LAPT1 [11]; STIB 386WT procyclics): 0.70 ± 0.15 pmol/10^7 cells/s
Km (LAPT1 [11]; STIB 386MR procyclics): 51 ± 2 µM
Km (LAPT1 [11]; STIB 386WT procyclics): 46 ± 9 µM
Rate of [3H]pentamidine uptake (TbAQP2 [12]; 50 nM [3H]pentamidine in the presence of 1 mM unlabelled pentamidine): 0.00026 ± 1.8 × 10^−6 pmol/10^7 cells/s
Rate of [3H]pentamidine uptake (TbAQP2 [12]; 50 nM [3H]pentamidine, over 15 s): 0.032 ± 0.002 pmol/10^7 cells/s
Increase of [3H]pentamidine uptake (TbAQP2 [12]; 100 nM [3H]pentamidine over 5 min, TbAQP2-expressing promastigotes vs control): ~15 fold
LAPT1 Vmax (LAPT1 [13]; STIB 247MR procyclics): 0.41 ± 0.10 pmol/10^7 cells/s
LAPT1 Vmax (LAPT1 [13]; STIB 247WT procyclics): 0.65 ± 0.17 pmol/10^7 cells/s
Km (LAPT1 [13]; STIB 247MR procyclics): 56 ± 19 µM
Km (LAPT1 [13]; STIB 247WT procyclics): 49 ± 19 µM
Susceptibility (T. b. gambiense): +++ and +/−
Increase of [3H]pentamidine uptake on expression of TbAQP2 (LAPT1 [14]; 1 μM pentamidine, B48 + TbAQP2 vs B48): 2.5 fold
Uptake of [3H]pentamidine compared with control (LAPT1 [14]; 1 μM pentamidine, B48 compared with TbAT1-KO): not significantly different
IC50 (LAPT1 [14]; read-out: IC50, inhibition of [3H]pentamidine uptake, low-affinity phase, 2T1 control cells, 30 nM [3H]pentamidine, 1 mM adenosine, n = 3): 29.9 ± 4.3 µM
IC50 (LAPT1 [14]; read-out: IC50, inhibition of [3H]pentamidine uptake, aqp2 null cells, 30 nM [3H]pentamidine, 1 mM adenosine): 33.4 ± 9.5 µM
Km (LAPT1 [14]; B48/AQP2 bloodstream forms): 66 ± 1 µM
Km (LAPT1 [14]; P1000 bloodstream forms): 99 ± 24 µM
Pentamidine resistance in vivo relative to parental line (T. b. brucei 247MR): > 50 fold

N=C(N)c1ccc(OCCCOc2ccc(C(=N)N)cc2)cc1 [propamidine]
Ki (TbAQP2 [5]): 8.1 ± 0.8 µM
Ki (HAPT1 [7]): 22 ± 6 µM
Ki (HAPT1 [15]; TbAT1-KO bloodstream forms, ref Matovu et al. 14): 13 ± 3 µM
Ki (HAPT1 [15]; WT s427 bloodstream forms, ref De Koning 17): 4.6 ± 0.7 µM
Ki (HAPT1 [8]): 15.2 ± 1.6 µM
Ki (HAPT1 [10]): 14 ± 2 µM
IC50, inhibition of [3H]pentamidine uptake (LAPT1 [14]; aqp2 null cells, 30 nM [3H]pentamidine, 1 mM adenosine): insensitive

Nc1ncnc2c1ccn2[C@@H]1O[C@H](CO)[C@@H](O)[C@H]1O [tubercidin, 7-deazaadenosine]
Increase in susceptibility on expression of TbAT1 ([1]; P < 0.001): > 20 fold
EC50 ([1]; s427 WT, read-out: EC50): 230 ± 30 nM
EC50 ([1]; tbat1−/− strain, read-out: EC50): 2650 ± 230 nM
Decrease in susceptibility ([1]; tbat1−/− strain relative to s427 WT): 10 fold

HAPT1 (Trypanosoma brucei brucei)
Km ([16]; other: B48/AQP2 bloodstream forms): 0.046 ± 0.014 µM

TbAQP2 (Trypanosoma brucei brucei)
Km ([16]; other: L. mexicana/TbAQP2 promastigotes): 0.055 ± 0.004 µM
